The record followed here is PMC12040169 (PLOS Biology, 2025).

The data set in a line: in vitro. The following applies: human, hela cells, % viability.

The term viability denotes a read-out of living cells in per cent, often relative to untreated cells. With `O=C(Cn1cnc2c(cnn2-c2cccc(Cl)c2)c1=O)N1CCCCC1` [CBK287691], the viability at 28.5 h, 10 µM came out at 83.3%. `CC(C)c1ccc(C(=O)NC2CCN(CC(F)(F)F)C2=O)nc1` (stereo not drawn) [CBK304089]: the viability at 28.5 h, 10 µM was 108%.

As to `CC1=CCCN(C(=O)C23CCOCC2CN(c2ncccn2)C3)C1` (stereo not drawn) [CBK304743], the viability at 28.5 h, 10 µM was 101%. On to `Cc1ccc([N+](=O)[O-])cc1NC(=O)C1Cc2ccccc2CN1C(=O)OCc1ccccc1` (stereo not drawn) [CBK262463], for which the viability at 28.5 h, 10 µM stood at 100%. Turning to `CCN(CC)CCCOC(=O)C(CCSC)c1ccccc1C` (stereo not drawn) [CBK023177C], the viability at 28.5 h, 10 µM came to 91.7%. The same measure, in the same setting: the figure for `O=C(Nc1cccc(N2CCNCC2)c1)c1cnccn1` [CBK029470T] is 90.3%; for `O=C(CCN1C(=O)/C(=C/c2ccc(F)cc2)SC1=S)NNC(=O)c1cccnc1` [CBK262862] it is 104%. As to `CN(C)CCC(c1ccccc1)n1cncc1-c1cnn(C)c1` (stereo not drawn) [CBK281742], the viability at 28.5 h, 10 µM stood at 93.6%. `Cc1nc2ccc(NC(=O)CC(c3ccccc3)c3ccccc3)cc2s1` [CBK293988]: the viability at 28.5 h, 10 µM worked out at 90%.

Consider `Cc1ccc(Cl)c(OC(C)C(=O)N2CCOC(CC(=O)O)C2)c1` (stereo not drawn) [CBK304769], for which the viability at 28.5 h, 10 µM was found to be 93%. Turning to `CCc1ccc(CNC(=O)Cn2nnc(-c3ccc(CNC4CCOCC4)cc3)n2)cc1` [CBK161029C], the viability at 28.5 h, 10 µM was determined as 89.8%.

On to `CCOC(=O)N1CCN(CCC(=O)Nc2ccc3c(c2)CCC3)CC1` [CBK264220], for which the viability at 28.5 h, 10 µM came to 111%. Still for that read-out and setting: the figure for `CN(c1cc(F)ccc1[N+](=O)[O-])S(C)(=O)=O` [CBK001365] is 82.1%. As to `O=C(COc1ccc2ccccc2c1)N1CCN(S(=O)(=O)c2ccc([N+](=O)[O-])cc2)CC1` [CBK264277], the viability at 28.5 h, 10 µM was determined as 98%. On to `Cc1cc(C)n(CC2CN(CC(=O)NCc3ccccn3)CCO2)n1` (stereo not drawn) [CBK305344], for which the viability at 28.5 h, 10 µM is 107%.

Take `CN(C)CC(=O)N/N=C/c1ccsc1` [CBK008256C]: the viability at 28.5 h, 10 µM amounted to 110%. Same read-out and setting: to `O=C(NCc1ccccc1)C1CCCN(c2ncnc3[nH]cnc23)C1` (stereo not drawn) [CBK287916] belongs 91.4%.

In the case of `Cc1cc(C)cc(N2C(=O)/C(=C/c3ccc(OC(C)C(=O)O)cc3)C(=O)NC2=S)c1` (stereo not drawn) [CBK264016], the viability at 28.5 h, 10 µM (bulk resorufin, single well) was 93.9%.

Take `Cc1n[nH]c(C)c1CNC(=O)C1CCN(Cc2ccc(F)cc2)CC1` [CBK282502]: the viability at 28.5 h, 10 µM stood at 92%. In the case of `COc1ccc(C)cc1S(=O)(=O)N1CCCC(C(=O)NCc2ccccn2)C1` (stereo not drawn) [CBK268503], the viability at 28.5 h, 10 µM was determined as 102%.

Consider `O=C(NCCc1ccc(Cl)cc1)C1(Cc2ccc(-c3ccncc3)cc2)CCOCC1` [CBK285570], for which the viability at 28.5 h, 10 µM is 89%. On to `Cc1ccc(S(=O)(=O)N(CC(=O)N2CCN(C)CC2)Cc2ccc(Cl)cc2Cl)cc1` [CBK265144], for which the viability at 28.5 h, 10 µM was 100%. As for `Cc1ccc(CN(Cc2cncn2C)C2CC(C)(C)NC(C)(C)C2)o1` [CBK283192], the viability at 28.5 h, 10 µM worked out at 103%.

`COc1ccc(C(=O)Nc2ccccc2N2CCN(C)CC2)c(OC)c1` [CBK269763]: the viability at 28.5 h, 10 µM stood at 90.4%. Still for that read-out and setting: to `COCC(=O)N1CCC(Cc2ccc(-c3cccc(C)c3)cc2)(C(=O)NC(C)C)CC1` [CBK285759] belongs 93.6%; to `CCC(C)(Sc1nc(C)ccc1C#N)C(=O)O` (stereo not drawn) [CBK287098], 88.7%; to `O=C(O)c1ccccc1SC1CC(=O)N(c2ccccc2)C1=O` (stereo not drawn) [CBK273885], 94.6%. Same read-out and setting: the figure for `O/N=C1/c2ccccc2/C(=N/O)C1c1ccccc1` [CBK261122] is 75.2%; for `O=C(CN1C(=O)S/C(=C\C=C\c2ccccc2)C1=O)Nc1cccc2c1C(=O)c1ccccc1C2=O` [CBK263870] it is 87.1%; for `N#C/C(=C\c1cn(-c2ccccc2)nc1-c1cccc(S(=O)(=O)N2CCOCC2)c1)c1nc2ccccc2c(=O)[nH]1` [CBK266357] it is 98.1%. `O=C(Nc1ccc(N2CCNCC2)c2ccccc12)c1coc2c1C(=O)CCC2` [CBK038946T]: the viability at 28.5 h, 10 µM was 81.5%. On the same count and under the same terms, to `CC(C)[C@H](CO)Nc1nccnc1-c1cccs1` [CBK089047] belongs 99%; to `CC(=O)c1ccc(NC(=O)NC[C@H]2C[C@@H]3CC[N@]2C[C@@H]3CN2CCCCC2)cc1` [CBK288766], 92.3%. Same read-out and setting: to `O=C(O)c1ccc2c(c1)C(=O)N(c1ccc(/C=C/C(=O)c3ccccc3)cc1)C2=O` [CBK261181] belongs 79.6%; to `Clc1ccc(SCc2cccc(CSc3ccc(Cl)c(Cl)c3)n2)cc1Cl` [CBK223404], 86.3%; to `Cc1ccn2cc(CNC(=O)CCC(C)N3CCN(C)CC3)nc2c1` (stereo not drawn) [CBK306628], 97.2%.

Turning to `Cc1cc(NC(=O)C2CCN(C(=O)c3cnc(N)c(Cl)c3)CC2)no1` [CBK305545], the viability at 28.5 h, 10 µM came to 110%. Take `COc1n[nH]c(CO)c1Cc1c(Cl)cccc1Cl` [CBK092283T]: the viability at 28.5 h, 10 µM amounted to 97.3%. In the case of `CCN1CCN(S(=O)(=O)c2ccc(Br)cc2)CC1` [CBK100197], the viability at 28.5 h, 10 µM worked out at 99.7%. Consider `CC(NC(C)(C)C)C(O)COc1ccc(Cl)c2c1C1CCC2CC1` (stereo not drawn) [CBK017752C], for which the viability at 28.5 h, 10 µM is 89.6%. On to `COc1ccc(Cc2n[nH]c(=S)n2-c2cccnc2)cc1` [CBK288373], for which the viability at 28.5 h, 10 µM worked out at 85.5%. Take `O=S(=O)(c1ccc(Br)cc1C(F)(F)F)N1CCOCC1` [CBK062405]: the viability at 28.5 h, 10 µM was determined as 102%. Regarding `COc1ccc(CCCCN(C(=O)C(N)Cc2ccccc2)c2cccc3ccccc23)cc1OC` (stereo not drawn) [CBK001032T], the viability at 28.5 h, 10 µM was 118%. Same read-out and setting: to `N#CCCN(Cc1ccco1)C(=O)c1ccc(NC2CC2)nc1` [CBK304922] belongs 88.2%; to `COC(=O)C1CC(O)CN1S(=O)(=O)c1cccs1` (stereo not drawn) [CBK086668], 87%; to `Cc1cc(C)n2nc(SCc3nc4sc(C(=O)O)c(C)c4c(=O)[nH]3)nc2n1` [CBK297482], 88.1%. The same measure, in the same setting: the figure for `CCOC(=O)c1c(NC(=O)C2C3CCC(C3=C(C)C)C2C(=O)O)sc2c1CCCCC2` (stereo not drawn) [CBK265439] is 106%; for `CCOC(=O)COc1ccc2c(=O)c(Oc3ccc([N+](=O)[O-])cc3)c(C)oc2c1C` [CBK266092] it is 96.6%; for `O=C(Nc1ccc2nsnc2c1NC(=O)c1ccc2nsnc2c1)c1ccc2nsnc2c1` [CBK264309] it is 95.9%.

For `C=CCc1cc(C)cc(C)c1OCCN1CCN(C)CC1` [CBK269672C], the viability at 28.5 h, 10 µM is 101%.

Take `NC(=O)c1csc(-c2ccc(F)cc2F)n1` [CBK067749]: the viability at 28.5 h, 10 µM worked out at 68.6%. For the compound `O=C(CSc1n[nH]c(-c2ccccc2Cl)n1)Nc1ccccc1F` [CBK265901], the viability at 28.5 h, 10 µM amounted to 82.9%.

Take `Cc1ccc(Cc2cnc(NC(=O)NC3CCOC(C)(C)C3)s2)cc1F` (stereo not drawn) [CBK304139]: the viability at 28.5 h, 10 µM came to 92.2%. On the same count and under the same terms, to `CC(C)C(=O)Nc1cc2ccccc2c(-c2cc(F)cc(F)c2)n1` [CBK085775] belongs 95.4%; to `COc1ccc2[nH]c3c(c2c1)CCN(C(=O)CNCC(=O)O)C31CCN(CCOc2ccccc2)C1` (stereo not drawn) [CBK082782T], 114%. For `Cc1nnc(SCC(=O)N2c3ccccc3Sc3ccccc32)n1N` [CBK265920], the viability at 28.5 h, 10 µM was 96.5%. On to `CC(C)(C)c1cc(C(=O)NCC2CCCN2)n(Cc2ccc(Cl)cc2Cl)n1` (stereo not drawn) [CBK115920C], for which the viability at 28.5 h, 10 µM is 96.1%. Regarding `O=C(NCCc1c[nH]c2ccccc12)c1cccs1` [CBK231038], the viability at 28.5 h, 10 µM is 88.2%.

Regarding `Oc1c(Br)cc(Cl)cc1/C=N/Nc1nnc2c(n1)[nH]c1ccccc12` [CBK262041], the viability at 28.5 h, 10 µM is 114%. Regarding `COCCNC(=O)c1nn2c(c1Br)NC(c1cccs1)CC2C(F)(F)F` (stereo not drawn) [CBK307178], the viability at 28.5 h, 10 µM came out at 84.5%. Consider `Cc1ccc2cccc(OS(=O)(=O)c3ccc(Cl)c(C)c3Cl)c2n1` [CBK263984], for which the viability at 28.5 h, 10 µM was 53.7%. For the compound `CCC(=O)Nc1nc(-c2ccco2)c(-c2ccncc2)s1` [CBK284495], the viability at 28.5 h, 10 µM turned out to be 101%. For `COc1cccc(CCN2CCC(C(=O)NC(C)c3cccc4ccccc34)CC2)c1` (stereo not drawn) [CBK148650], the viability at 28.5 h, 10 µM amounted to 93.3%. Take `Nc1cc(-c2ccco2)nn(Cc2c(Cl)cccc2Cl)c1=O` [CBK282880]: the viability at 28.5 h, 10 µM was determined as 112%. Consider `COc1ccccc1NC(=O)N1C[C@@H]2C[C@H](C1)c1c(-c3cccc(C#N)c3)ccc(=O)n1C2` [CBK289197], for which the viability at 28.5 h, 10 µM was 92.8%. Take `N#Cc1[nH]nnc1-c1ccc(OC(F)(F)F)cc1` [CBK017386]: the viability at 28.5 h, 10 µM turned out to be 95.1%. Regarding `CN1C(=O)C2(CC(=O)N(CC3CCCCC3)C2=O)c2cc(F)ccc21` (stereo not drawn) [CBK075257], the viability at 28.5 h, 10 µM amounted to 106%.

Take `CC(=O)N1C[C@@H]2C[C@H](C1)c1ccc(NC(=O)c3ccc(C#N)cc3)c(=O)n1C2` [CBK289202]: the viability at 28.5 h, 10 µM came out at 90.6%. For `C=CCC1c2cccc(C(=O)O)c2C(=O)N1c1cccc(OC)c1` (stereo not drawn) [CBK113160], the viability at 28.5 h, 10 µM came to 96.7%.

As for `O=C(Nc1ccccc1F)C1CCCN1c1nc(O)cc(C(F)(F)F)n1` (stereo not drawn) [CBK004307], the viability at 28.5 h, 10 µM was found to be 105%.

Regarding `CCCc1cc(-c2c(Cl)cccc2Cl)[nH]n1` [CBK107818], the viability at 28.5 h, 10 µM was found to be 91.2%. In the case of `COc1cc(Nc2nc(-c3cccc(OC(F)(F)F)c3)cn3ccnc23)cc(OC)c1OC` [CBK038036], the viability at 28.5 h, 10 µM was 101%. As to `Cc1cc(C)nc(SCC(=O)Nc2ccc(C(=O)O)cc2)n1` [CBK263223], the viability at 28.5 h, 10 µM came to 97.8%. `Cc1c(S(=O)(=O)N2CCN(C)CC2)sc2ccc(C(C)C)cc12` [CBK170362]: the viability at 28.5 h, 10 µM is 90.1%.

For the compound `CCOC(=O)N1CCC2(CC1)OCc1cc(-c3ccccc3CO)ccc1O2` [CBK060908], the viability at 28.5 h, 10 µM (bulk resorufin, single well) came to 103%. As to `c1ccc2c(-c3cn4ccnc4c(NC4CCOCC4)n3)cccc2c1` [CBK038047], the viability at 28.5 h, 10 µM worked out at 89.9%.

As to `O=C(Nc1ccc(Cc2ccncc2)cc1)c1cc([N+](=O)[O-])n[nH]1` [CBK269157], the viability at 28.5 h, 10 µM was found to be 99.4%. In the case of `COc1cc(-c2cc(C(=O)O)c3c(-c4ccc(C)cc4)n[nH]c3n2)ccc1O` [CBK287268], the viability at 28.5 h, 10 µM turned out to be 83.9%.
